In article PMC10485906, “Development of a Dihydroquinoline–Pyrazoline GluN2C/2D-Selective Negative Allosteric Modulator of the N-Methyl-D-aspartate Receptor” (ACS Chemical Neuroscience, 2023):

How the values were obtained:
[1] = Kinetic solubility in PBS (nephelometer); assay type: physicochemical; conditions: Dulbecco's phosphate-buffered saline (DPBS), 25 °C, pH 7.2, aqueous buffer, kinetic from dmso stock, 1% DMSO, room temperature, n = 7
From the text: Anticipating that the carboxylate side chain may hinder BBB penetrance, we synthesized and biologically screened a series of 2i prodrugs with ester and amide masking groups. With the classical physiochemical parameters required for brain exposure (i.e., molecular weight, MW, lipophilicity, and topological polar surface area, TPSA) and drug release mechanisms beyond the BBB in mind, we focused on simple alkyl-based promoieties. Our selected lead compound (2i), a close analogue (2a), and their corresponding prodrugs (2l–r) were studied in vitro to ascertain drug solubility, metabolic stability in liver microsomes (LMs), plasma stability, mouse brain homogenate stability, and cytochrome P450 (CYP450) inhibition (Tables S3 and S4 for predicted absorption, distribution, metabolism, and excretion or ADME parameters). […]
Methods for Kinetic Solubility Experiments
The test compounds were first dissolved in DMSO to provide stock solutions of either 30 mM or 60 mM. Kinetic solubility experiments were then performed in a 96-well microtiter plate (Clear-Bottom, Black, Corning® Costar) with a final volume of 250 µL per well in rows B-H. Each plate was initially prepared with the addition of 16 μL of DMSO to well A3, 20 μL to well A4, 27 μL to well A5, and 40 μL to all remaining wells in row A (A1 and A6-12). Next, the test compound (30 μL of DMSO stock solution) was directly added to well A2 without further modification. Moreover, the test compound (64 μL of DMSO stock solution) was diluted in well A3 to give a total volume of 80 μL. Further dilutions were then conducted by removing 60 µL from well A3 and adding it to A4, followed by removing 53 µL from well A4 and adding it to A5, followed by removing 40 µL from well A5 and adding it to A6, and sequentially removing 40 µL from the remaining wells up to A12. Well A1 served as a DMSO blank.
The sample solutions prepared in row A (2.5 µL from each well) were transferred to the corresponding wells in rows B-H. Dulbecco’s phosphate-buffered saline (DPBS, Gibco®, 1X, no Ca2+ and Mg2+, pH […]
7.1-7.3) was then added to all wells in rows B-H (30 µL each), and the 96-well plate was incubated at 25 °C for 1 min. Next, DPBS (217.5 µL) was added to all wells in rows B-H, and the 96-well plate was once more incubated at 25 °C for 2 h. This procedure provided seven replicate experiments with final concentrations of the test compound (1% DMSO in DPBS) ranging from either 300 to 0.9375 µM or 600 to 1.875 µM in rows B-H, depending on the whether a 30 mM or 60 mM DMSO stock solution was used, respectively (i.e. a 100-fold dilution from sample preparation in row A). After incubation, the plates were analyzed using a NEPHELOstar® microplate reader, and the segmental linear regression data was processed with MARS analysis software (BMG LabTech, see Supplemental Figure S4A for a representative example). […]
Synergy-S diffractometer. The crystal was kept at a steady T = 100.0(3) K during data collection. The structure was solved with the ShelXT 2018/2 (Sheldrick, 2015, Bauer and Gotz, 2021) solution program using dual methods and by using Olex2 1.5-alpha (Dolomanov et al., 2009) as the graphical interface.
The model was refined with olex2.refine 1.5-alpha (Bourhis et al., 2015) using full matrix least squares […]
which were used in all calculations. The final wR2 was 0.0983 (all data) and R1 was 0.0412 (I≥2 s(I)).

[2] = molecular target: T1, CYP2D6 (Homo sapiens, UniProt P10635); test: Fluorometric CYP450 enzyme inhibition assay, CYP2D6; assay type: in vitro ADME; conditions: n = 2 (2k n = 4)
T1 construct: purchased Corning; host or cells: insect cells (microsomes)
T1 sequence (P10635 whole entry): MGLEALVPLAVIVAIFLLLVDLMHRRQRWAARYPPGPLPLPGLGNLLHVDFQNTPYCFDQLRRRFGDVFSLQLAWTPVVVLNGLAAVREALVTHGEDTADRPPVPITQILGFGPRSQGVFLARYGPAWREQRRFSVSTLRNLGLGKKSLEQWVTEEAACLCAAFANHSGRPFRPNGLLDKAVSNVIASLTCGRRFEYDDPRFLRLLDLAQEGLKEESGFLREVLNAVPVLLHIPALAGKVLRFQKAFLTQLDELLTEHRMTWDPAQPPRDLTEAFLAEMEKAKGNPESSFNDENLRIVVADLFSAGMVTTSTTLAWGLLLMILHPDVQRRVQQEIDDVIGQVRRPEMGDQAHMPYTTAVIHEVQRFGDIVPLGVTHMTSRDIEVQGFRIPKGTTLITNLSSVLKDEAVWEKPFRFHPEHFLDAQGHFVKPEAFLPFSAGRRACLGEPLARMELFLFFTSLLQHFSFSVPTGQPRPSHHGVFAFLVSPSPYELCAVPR

Row | solubility kinetic at 2 h [1] [µM] | IC50 [2] [µM] | Structure (SMILES)
1 | ~208 | 18 ± 0.8 | O=C(O)CCC(=O)N1N=C(c2c(-c3ccc(Cl)cc3)c3ccccc3[nH]c2=O)CC1c1ccc(Cl)cc1 (centres unmarked) [2a]
2 | ~38 | > 20 | O=C(O)CC(F)(F)C(=O)N1N=C(c2c(-c3ccc(Cl)cc3)c3ccccc3[nH]c2=O)CC1c1ccc(Cl)cc1 (centres unmarked) [2i]
3 | ~30 | > 20 | NC(=O)CC(F)(F)C(=O)N1N=C(c2c(-c3ccc(Cl)cc3)c3ccccc3[nH]c2=O)CC1c1ccc(Cl)cc1 (centres unmarked) [2k]
4 | 43 ± 18 | > 20 | CCOC(=O)CC(F)(F)C(=O)N1N=C(c2c(-c3ccc(Cl)cc3)c3ccccc3[nH]c2=O)CC1c1ccc(Cl)cc1 (centres unmarked) [2l]
5 | 43 ± 10 | > 20 | CC(C)OC(=O)CC(F)(F)C(=O)N1N=C(c2c(-c3ccc(Cl)cc3)c3ccccc3[nH]c2=O)CC1c1ccc(Cl)cc1 (centres unmarked) [2m]
6 | 27 ± 9 | > 20 | O=C(CC(F)(F)C(=O)N1N=C(c2c(-c3ccc(Cl)cc3)c3ccccc3[nH]c2=O)CC1c1ccc(Cl)cc1)OCC1CC1 (centres unmarked) [2n]
7 | 52 ± 6.3 | > 20 | CC(C)(C)COC(=O)CC(F)(F)C(=O)N1N=C(c2c(-c3ccc(Cl)cc3)c3ccccc3[nH]c2=O)CC1c1ccc(Cl)cc1 (centres unmarked) [2o]
8 | 40 ± 12 | > 20 | O=C(CC(F)(F)C(=O)N1N=C(c2c(-c3ccc(Cl)cc3)c3ccccc3[nH]c2=O)CC1c1ccc(Cl)cc1)OCc1ccccc1 (centres unmarked) [2p]
9 | 52 ± 13 | > 20 | CNC(=O)CC(F)(F)C(=O)N1N=C(c2c(-c3ccc(Cl)cc3)c3ccccc3[nH]c2=O)CC1c1ccc(Cl)cc1 (centres unmarked) [2q]
10 | 43 ± 5.1 | > 20 | CN(C)C(=O)CC(F)(F)C(=O)N1N=C(c2c(-c3ccc(Cl)cc3)c3ccccc3[nH]c2=O)CC1c1ccc(Cl)cc1 (centres unmarked) [2r]
